# Source: ChEMBL document CHEMBL5500396, “Discovery, Multiparametric Optimization, and Solid-State Driven Identification of CHF-6550, a Novel Soft Dual Pharmacology Muscarinic Antagonist and β2 Agonist (MABA) for the Inhaled Treatment of Respiratory Diseases” (J Med Chem, 2024)
# Columns and labels:
# [1] = target: Beta-2 adrenergic receptor (Homo sapiens, UniProt P07550)
# Description: Displacement of [125I]-Cyanopindolol from human beta2 adrenoceptor assessed as inhibition constant incubated for 1 hrs by Microbeta scintillation counter
# [2] = in vitro; settings: human, hepatocytes
# Description: Metabolic stability in human hepatocytes assessed as clearance measured per 10^6 cells at 1 uM incubated for 90 mins by LC-MS/MS analysis
# [3] = in vitro; settings: rat, hepatocytes
# Description: Metabolic stability in rat hepatocytes assessed as clearance measured per 10^6 cells at 1 uM incubated for 90 mins by LC-MS/MS analysis
# [4] = in vitro; settings: human, plasma
# Description: Stability in human plasma assessed as half-life at 5 uM incubated for 120 mins by LC-MS/MS analysis
# [5] = in vitro; settings: rat, plasma
# Description: Stability in rat plasma assessed as half-life at 5 uM incubated for 120 mins by LC-MS/MS analysis
# [6] = in vitro; settings: guinea pig, plasma
# Description: Stability in guinea pig plasma assessed as half-life at 5 uM incubated for 120 mins by LC-MS/MS analysis
# [7] = target: Muscarinic acetylcholine receptor M3 (Homo sapiens, UniProt P20309)
# Muscarinic acetylcholine receptor M3, sequence (P20309 whole entry): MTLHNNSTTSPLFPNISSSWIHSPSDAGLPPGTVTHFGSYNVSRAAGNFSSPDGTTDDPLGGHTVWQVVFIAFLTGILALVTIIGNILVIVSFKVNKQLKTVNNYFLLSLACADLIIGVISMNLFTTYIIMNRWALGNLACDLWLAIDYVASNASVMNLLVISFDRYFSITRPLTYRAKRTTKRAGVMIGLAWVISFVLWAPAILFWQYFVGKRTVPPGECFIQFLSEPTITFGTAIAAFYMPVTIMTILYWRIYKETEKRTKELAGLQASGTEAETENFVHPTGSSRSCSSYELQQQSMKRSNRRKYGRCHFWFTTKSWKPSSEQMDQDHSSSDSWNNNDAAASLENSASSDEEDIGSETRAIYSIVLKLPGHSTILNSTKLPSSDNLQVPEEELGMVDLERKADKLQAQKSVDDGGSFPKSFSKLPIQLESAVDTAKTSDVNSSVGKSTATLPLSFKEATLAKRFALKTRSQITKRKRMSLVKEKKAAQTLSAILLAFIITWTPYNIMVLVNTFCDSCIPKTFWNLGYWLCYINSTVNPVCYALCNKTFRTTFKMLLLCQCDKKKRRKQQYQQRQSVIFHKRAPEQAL
# Description: Displacement of Scopolamine methyl chloride,[N-methyl-3H] from human muscarinic M3 receptor assessed as inhibition constant incubated for 2 hrs by Microbeta scintillation counter
# Beta-2 adrenergic receptor, sequence (P07550 whole entry): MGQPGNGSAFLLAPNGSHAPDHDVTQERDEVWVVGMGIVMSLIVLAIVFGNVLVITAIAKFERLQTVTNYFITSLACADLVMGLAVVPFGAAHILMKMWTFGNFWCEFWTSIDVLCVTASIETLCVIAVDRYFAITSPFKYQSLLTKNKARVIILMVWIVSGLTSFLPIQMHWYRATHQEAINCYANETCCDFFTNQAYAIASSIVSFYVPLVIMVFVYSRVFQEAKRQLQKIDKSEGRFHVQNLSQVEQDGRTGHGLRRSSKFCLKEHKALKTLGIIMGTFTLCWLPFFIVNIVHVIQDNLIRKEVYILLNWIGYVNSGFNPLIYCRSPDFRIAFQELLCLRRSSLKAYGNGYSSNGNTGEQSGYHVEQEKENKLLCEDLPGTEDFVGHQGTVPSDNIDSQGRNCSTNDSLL
Structure (SMILES),Ki [1],"hepatocyte CLint at 1.5 h, 1 µM [2]","hepatocyte CLint at 1.5 h, 1 µM [3]","half-life at 2 h, 5 µM [4]","half-life at 2 h, 5 µM [5]","half-life at 2 h, 5 µM [6]",Ki [7]
COc1cc(CNC[C@H](O)c2ccc(O)c3[nH]c(=O)ccc23)c(Cl)cc1C(=O)NCCCOc1cccc([C@](O)(C(=O)O[C@@H]2CCCN(C)C2)c2ccccc2)c1,0.1 nM,7 µL/min/1e6 cells,66 µL/min/1e6 cells,> 150 min,130 min,> 150 min,–
O=C(NCCCOc1cccc([C@](O)(C(=O)O[C@H]2CCN(Cc3ccccc3)C2)c2ccccc2)c1)c1ccc(CNC[C@H](O)c2ccc(O)c3[nH]c(=O)ccc23)cc1,0.398 nM,22 µL/min/1e6 cells,71 µL/min/1e6 cells,> 150 min,15 min,12 min,–
CN1CCC(COC(=O)[C@](O)(c2ccccc2)c2cccc(-c3ccc(CNC(=O)c4ccc(CNC[C@H](O)c5ccc(O)c6[nH]c(=O)ccc56)cc4)s3)c2)CC1,0.398 nM,27 µL/min/1e6 cells,21 µL/min/1e6 cells,> 150 min,88 min,48 min,2.51 nM
O=C(NCCCOc1cccc([C@](O)(C(=O)O[C@H]2CCCN(Cc3ccccc3)C2)c2ccccc2)c1)c1ccc(CNC[C@H](O)c2ccc(O)c3[nH]c(=O)ccc23)cc1.O=CO,0.501 nM,19 µL/min/1e6 cells,53 µL/min/1e6 cells,> 150 min,11 min,15 min,–
CN1CCC[C@@H](OC(=O)[C@](O)(c2ccccc2)c2cccc(OCCCNC(=O)c3ccc(CNC[C@H](O)c4ccc(O)c5[nH]c(=O)ccc45)c(F)c3)c2)C1.O=CO,0.0126 nM,6 µL/min/1e6 cells,54 µL/min/1e6 cells,> 150 min,15 min,84 min,–
COc1cc(C(=O)N2CCC(c3cccc([C@](O)(C(=O)OCC4CCN(Cc5ccccc5)CC4)c4ccccc4)c3)CC2)ccc1CNC[C@H](O)c1ccc(O)c2[nH]c(=O)ccc12,0.501 nM,28 µL/min/1e6 cells,29 µL/min/1e6 cells,> 150 min,> 150 min,35 min,0.631 nM
O=C(NCCCOc1cccc([C@](O)(C(=O)OC2CCN(Cc3ccccc3)CC2)c2ccccc2)c1)c1ccc(CNC[C@H](O)c2ccc(O)c3[nH]c(=O)ccc23)cc1,0.0501 nM,12 µL/min/1e6 cells,64 µL/min/1e6 cells,> 150 min,135 min,8 min,–
CN1CCC[C@@H](OC(=O)[C@](O)(c2ccccc2)c2cccc(OCCCNC(=O)c3ccc(CNC[C@H](O)c4ccc(O)c5[nH]c(=O)ccc45)nc3)c2)C1.O=CO.O=CO,0.0251 nM,< 2 µL/min/1e6 cells,20 µL/min/1e6 cells,> 150 min,17 min,> 150 min,–
Cc1cc(C(=O)NCCCOc2cccc([C@](O)(C(=O)O[C@@H]3CCCN(C)C3)c3ccccc3)c2)c(C)cc1CNC[C@H](O)c1ccc(O)c2[nH]c(=O)ccc12,0.0158 nM,3 µL/min/1e6 cells,49 µL/min/1e6 cells,> 150 min,30 min,142 min,–
O=C(NCCCOc1cccc([C@](O)(C(=O)O[C@@H]2CCN(Cc3ccccc3)C2)c2ccccc2)c1)c1ccc(CNC[C@H](O)c2ccc(O)c3[nH]c(=O)ccc23)cc1,0.158 nM,23 µL/min/1e6 cells,69 µL/min/1e6 cells,> 150 min,5 min,37 min,–
O=C(NCCCCNC[C@H](O)c1ccc(O)c2[nH]c(=O)ccc12)c1ccc(C(=O)N2CCC(C(=O)O[C@H]3CN4CCC3CC4)(c3ccccc3)CC2)cc1,0.631 nM,–,–,–,–,–,1.58 nM
COc1cc(C(=O)NCCCOc2cccc([C@](O)(C(=O)O[C@@H]3CCCN(C)C3)c3ccccc3)c2)c(OC)cc1CNC[C@H](O)c1ccc(O)c2[nH]c(=O)ccc12,0.0631 nM,6 µL/min/1e6 cells,61 µL/min/1e6 cells,> 150 min,> 150 min,> 150 min,–
CN1CCC[C@@H](OC(=O)[C@](O)(c2ccccc2)c2cccc(OCCCNC(=O)c3cccc(CNC[C@H](O)c4ccc(O)c5[nH]c(=O)ccc45)c3)c2)C1,2 nM,5 µL/min/1e6 cells,28 µL/min/1e6 cells,> 150 min,8 min,98 min,–
CN1CCC[C@@H](OC(=O)[C@](O)(c2ccccc2)c2cccc(OCCCNC(=O)c3cnc(CNC[C@H](O)c4ccc(O)c5[nH]c(=O)ccc45)nc3)c2)C1.O=CO,0.0251 nM,< 2 µL/min/1e6 cells,33 µL/min/1e6 cells,> 150 min,13 min,8 min,–
O=C(c1ccc(OCc2ccc(CNC[C@H](O)c3ccc(O)c4[nH]c(=O)ccc34)cc2)cc1)N1CC(C(=O)OCC2CCN(Cc3ccccc3)CC2)(c2ccccc2)C1,0.251 nM,–,–,–,–,–,7.94 nM
COc1cc(C(=O)NCCCOc2cccc([C@](O)(C(=O)O[C@@H]3CCCN(C)C3)c3ccccc3)c2)ccc1CNC[C@H](O)c1ccc(O)c2[nH]c(=O)ccc12,0.0158 nM,4 µL/min/1e6 cells,29 µL/min/1e6 cells,> 150 min,17 min,112 min,–
"O=C(NCCCCNC[C@H](O)c1ccc(O)c2[nH]c(=O)ccc12)c1cccc(C(=O)NC2(C(=O)O[C@H]3CN4CCC3CC4)CCc3ccccc32)c1 (single isomer, unassigned)",1.58 nM,–,–,–,–,–,12.6 nM
O=C(NCCCOc1cccc([C@](O)(C(=O)O[C@@H]2CCCN(Cc3ccccc3)C2)c2ccccc2)c1)c1ccc(CNC[C@H](O)c2ccc(O)c3[nH]c(=O)ccc23)cc1.O=CO,0.316 nM,20 µL/min/1e6 cells,78 µL/min/1e6 cells,> 150 min,5 min,> 150 min,–
COc1cc(C(=O)NCCCOc2cccc([C@](O)(C(=O)O[C@@H]3CCCN(C)C3)c3ccccc3)c2)c(F)cc1CNC[C@H](O)c1ccc(O)c2[nH]c(=O)ccc12,0.0158 nM,7 µL/min/1e6 cells,40 µL/min/1e6 cells,> 150 min,87 min,> 150 min,–
O=C(NCCCOc1cccc([C@](O)(C(=O)OC[C@H]2CCN(Cc3ccccc3)C2)c2ccccc2)c1)c1ccc(CNC[C@H](O)c2ccc(O)c3[nH]c(=O)ccc23)cc1,0.126 nM,7 µL/min/1e6 cells,38 µL/min/1e6 cells,> 128 min,32 min,56 min,–
CN1CCC[C@H](OC(=O)[C@](O)(c2ccccc2)c2cccc(OCCCNC(=O)c3ccc(CNC[C@H](O)c4ccc(O)c5[nH]c(=O)ccc45)cc3)c2)C1.O=CO.O=CO,0.0251 nM,5 µL/min/1e6 cells,52 µL/min/1e6 cells,> 150 min,8 min,51 min,–
COc1cc(C(=O)NCCCOc2cccc([C@](O)(C(=O)O[C@@H]3CCCN(C)C3)c3ccccc3)c2)c(Cl)cc1CNC[C@H](O)c1ccc(O)c2[nH]c(=O)ccc12,0.0251 nM,6 µL/min/1e6 cells,36 µL/min/1e6 cells,> 150 min,54 min,133 min,–
O=C(NCCCOc1cccc([C@](O)(C(=O)OC[C@@H]2CCN(Cc3ccccc3)C2)c2ccccc2)c1)c1ccc(CNC[C@H](O)c2ccc(O)c3[nH]c(=O)ccc23)cc1,0.0794 nM,5 µL/min/1e6 cells,37 µL/min/1e6 cells,> 150 min,15 min,58 min,–
"O=C(NCCCCNC[C@H](O)c1ccc(O)c2[nH]c(=O)ccc12)c1ccc(C(=O)NC2(C(=O)O[C@H]3CN4CCC3CC4)CCc3ccccc32)cc1 (single isomer, unassigned)",0.398 nM,–,–,–,–,–,> 50.1 nM
